Common to all, as to format: functional
In assay [1] the target is Ras and Rab interactor 1/Tyrosine-protein kinase ABL1 (Homo sapiens, UniProt P00519+Q13671).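 Further: biochemical TR-FRET dose-response test measuring inhibition of binding between Rin1 and Abl proteins.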
Assay [2] deals with T1, High affinity choline transporter 1 (Homo sapiens, UniProt Q9GZV3).
T1 sequence (Q9GZV3 whole entry): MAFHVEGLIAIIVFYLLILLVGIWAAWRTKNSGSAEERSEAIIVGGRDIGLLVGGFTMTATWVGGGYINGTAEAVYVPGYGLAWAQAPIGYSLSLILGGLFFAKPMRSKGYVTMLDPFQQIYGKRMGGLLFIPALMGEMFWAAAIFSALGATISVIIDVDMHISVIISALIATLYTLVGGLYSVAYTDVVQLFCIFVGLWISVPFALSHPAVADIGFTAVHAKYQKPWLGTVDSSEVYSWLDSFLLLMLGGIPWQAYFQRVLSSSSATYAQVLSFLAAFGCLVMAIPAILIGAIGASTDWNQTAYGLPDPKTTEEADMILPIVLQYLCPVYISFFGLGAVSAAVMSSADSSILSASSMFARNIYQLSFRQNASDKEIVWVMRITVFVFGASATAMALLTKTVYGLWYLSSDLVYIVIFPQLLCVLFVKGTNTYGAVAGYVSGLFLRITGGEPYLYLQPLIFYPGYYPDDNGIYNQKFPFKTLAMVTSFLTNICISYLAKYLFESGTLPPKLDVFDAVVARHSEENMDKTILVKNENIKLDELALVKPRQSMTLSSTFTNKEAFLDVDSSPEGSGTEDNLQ
The assay can be described thus: CHT inhibitors, dose response, cell-based, 5-point CRC, membrane potential dye (AID 504840).

The target of assay [3] is T1, High affinity choline transporter 1. The assay can be described thus: CHT inhibitors, dose response, cell-based, 10-point CRC, membrane potential dye (AID 588401).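 Further: membrane potential dye fluorescence of choline-evoked depolarization via CHT.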
Assay [4] has the same target. The experiment in a line: inhibitors of CHT choline uptake, dose response, cell-based, 3H-choline uptake, CHT LV-AA trafficking mutant, CRC (AID 602208).
The next assay addresses T2, Aurora kinase A (Homo sapiens, UniProt O14965).
T2 sequence (O14965 whole entry): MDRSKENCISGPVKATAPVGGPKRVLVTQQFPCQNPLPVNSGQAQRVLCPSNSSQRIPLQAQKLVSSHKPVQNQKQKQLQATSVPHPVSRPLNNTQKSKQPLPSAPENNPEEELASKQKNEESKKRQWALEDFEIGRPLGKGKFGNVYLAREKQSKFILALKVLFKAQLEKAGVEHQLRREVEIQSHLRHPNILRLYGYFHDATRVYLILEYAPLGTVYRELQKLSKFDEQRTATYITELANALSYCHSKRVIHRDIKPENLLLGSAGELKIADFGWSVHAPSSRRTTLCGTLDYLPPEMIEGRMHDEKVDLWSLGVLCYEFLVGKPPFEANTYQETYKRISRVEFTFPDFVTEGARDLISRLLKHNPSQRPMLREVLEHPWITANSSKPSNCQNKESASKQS

The target of assay [5] is Vascular endothelial growth factor receptor 2 (Homo sapiens, UniProt P35968).
The target in the next assay is Aurora kinase B (Homo sapiens, UniProt Q96GD4).

Activity calls are given as the source filed them.

Chain of Aurora kinase B (Q96GD4 whole entry): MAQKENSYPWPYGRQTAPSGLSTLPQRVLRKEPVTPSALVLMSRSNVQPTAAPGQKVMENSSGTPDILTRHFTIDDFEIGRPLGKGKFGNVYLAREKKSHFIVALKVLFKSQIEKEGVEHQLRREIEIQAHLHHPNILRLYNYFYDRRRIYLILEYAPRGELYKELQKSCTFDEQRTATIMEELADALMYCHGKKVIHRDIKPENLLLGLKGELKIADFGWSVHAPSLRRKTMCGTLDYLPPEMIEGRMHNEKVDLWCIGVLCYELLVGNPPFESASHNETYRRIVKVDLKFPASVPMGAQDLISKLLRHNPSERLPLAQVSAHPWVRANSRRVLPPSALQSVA
Chain of Vascular endothelial growth factor receptor 2 (P35968 whole entry): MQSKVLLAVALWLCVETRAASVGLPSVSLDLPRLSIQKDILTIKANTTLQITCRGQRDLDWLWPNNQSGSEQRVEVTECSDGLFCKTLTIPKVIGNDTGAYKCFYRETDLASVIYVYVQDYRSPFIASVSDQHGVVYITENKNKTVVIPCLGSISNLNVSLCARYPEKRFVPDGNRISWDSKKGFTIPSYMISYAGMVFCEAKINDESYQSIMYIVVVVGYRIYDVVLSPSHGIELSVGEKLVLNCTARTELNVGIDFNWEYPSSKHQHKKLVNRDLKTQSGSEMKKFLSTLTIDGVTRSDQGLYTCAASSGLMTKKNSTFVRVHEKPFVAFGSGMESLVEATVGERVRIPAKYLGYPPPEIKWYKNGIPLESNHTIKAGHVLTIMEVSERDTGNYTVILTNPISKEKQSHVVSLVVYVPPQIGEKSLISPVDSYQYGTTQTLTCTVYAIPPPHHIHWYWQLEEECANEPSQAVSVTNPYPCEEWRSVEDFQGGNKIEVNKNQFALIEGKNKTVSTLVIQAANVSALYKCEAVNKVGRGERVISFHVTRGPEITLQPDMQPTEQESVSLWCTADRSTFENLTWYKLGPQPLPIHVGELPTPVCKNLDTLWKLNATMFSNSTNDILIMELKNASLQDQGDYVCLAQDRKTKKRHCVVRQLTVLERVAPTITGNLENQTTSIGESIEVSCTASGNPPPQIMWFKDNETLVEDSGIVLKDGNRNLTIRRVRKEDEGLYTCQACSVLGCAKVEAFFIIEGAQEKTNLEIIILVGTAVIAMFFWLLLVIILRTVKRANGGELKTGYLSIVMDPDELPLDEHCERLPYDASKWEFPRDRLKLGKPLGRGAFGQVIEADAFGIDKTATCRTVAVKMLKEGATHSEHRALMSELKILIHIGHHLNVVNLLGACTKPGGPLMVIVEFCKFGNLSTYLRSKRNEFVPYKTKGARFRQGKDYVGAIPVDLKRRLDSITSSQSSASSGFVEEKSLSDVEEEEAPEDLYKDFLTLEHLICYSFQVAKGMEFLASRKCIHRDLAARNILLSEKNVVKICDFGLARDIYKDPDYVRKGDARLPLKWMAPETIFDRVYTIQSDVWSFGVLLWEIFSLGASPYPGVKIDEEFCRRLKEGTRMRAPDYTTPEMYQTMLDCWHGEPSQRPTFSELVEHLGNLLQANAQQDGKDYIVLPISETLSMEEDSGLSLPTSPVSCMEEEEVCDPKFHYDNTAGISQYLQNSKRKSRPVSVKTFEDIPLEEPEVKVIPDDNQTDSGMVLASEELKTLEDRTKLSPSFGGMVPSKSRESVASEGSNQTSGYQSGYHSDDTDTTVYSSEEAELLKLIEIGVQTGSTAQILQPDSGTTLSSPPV
Chain of Ras and Rab interactor 1/Tyrosine-protein kinase ABL1 (P00519 whole entry): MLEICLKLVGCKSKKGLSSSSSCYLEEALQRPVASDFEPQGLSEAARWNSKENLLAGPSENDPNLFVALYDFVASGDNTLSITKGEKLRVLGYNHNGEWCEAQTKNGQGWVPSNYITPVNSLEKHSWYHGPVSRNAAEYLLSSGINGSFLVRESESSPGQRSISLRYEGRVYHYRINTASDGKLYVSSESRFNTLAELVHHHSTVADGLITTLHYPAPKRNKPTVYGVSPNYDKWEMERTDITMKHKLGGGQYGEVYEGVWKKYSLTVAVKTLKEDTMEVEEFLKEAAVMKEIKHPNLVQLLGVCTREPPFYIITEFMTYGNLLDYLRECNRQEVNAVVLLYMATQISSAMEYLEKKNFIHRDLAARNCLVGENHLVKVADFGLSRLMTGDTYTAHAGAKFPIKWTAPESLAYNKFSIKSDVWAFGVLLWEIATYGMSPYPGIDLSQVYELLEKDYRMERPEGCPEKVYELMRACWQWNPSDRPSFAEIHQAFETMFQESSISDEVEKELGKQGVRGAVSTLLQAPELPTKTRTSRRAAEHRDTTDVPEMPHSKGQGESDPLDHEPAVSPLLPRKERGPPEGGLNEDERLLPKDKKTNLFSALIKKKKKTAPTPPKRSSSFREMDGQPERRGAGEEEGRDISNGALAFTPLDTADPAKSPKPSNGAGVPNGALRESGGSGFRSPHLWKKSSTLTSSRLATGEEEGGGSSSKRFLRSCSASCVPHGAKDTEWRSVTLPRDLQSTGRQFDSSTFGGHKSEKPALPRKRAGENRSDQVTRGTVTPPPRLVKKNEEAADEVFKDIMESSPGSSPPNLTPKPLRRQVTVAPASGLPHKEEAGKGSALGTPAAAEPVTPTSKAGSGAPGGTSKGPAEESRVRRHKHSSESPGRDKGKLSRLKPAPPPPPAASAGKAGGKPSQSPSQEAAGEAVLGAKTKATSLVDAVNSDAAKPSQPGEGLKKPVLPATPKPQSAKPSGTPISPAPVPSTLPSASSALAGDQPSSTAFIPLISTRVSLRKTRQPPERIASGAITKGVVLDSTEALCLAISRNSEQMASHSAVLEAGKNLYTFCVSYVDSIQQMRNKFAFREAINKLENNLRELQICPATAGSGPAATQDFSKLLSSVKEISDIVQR
Chain of Ras and Rab interactor 1/Tyrosine-protein kinase ABL1 (Q13671 whole entry): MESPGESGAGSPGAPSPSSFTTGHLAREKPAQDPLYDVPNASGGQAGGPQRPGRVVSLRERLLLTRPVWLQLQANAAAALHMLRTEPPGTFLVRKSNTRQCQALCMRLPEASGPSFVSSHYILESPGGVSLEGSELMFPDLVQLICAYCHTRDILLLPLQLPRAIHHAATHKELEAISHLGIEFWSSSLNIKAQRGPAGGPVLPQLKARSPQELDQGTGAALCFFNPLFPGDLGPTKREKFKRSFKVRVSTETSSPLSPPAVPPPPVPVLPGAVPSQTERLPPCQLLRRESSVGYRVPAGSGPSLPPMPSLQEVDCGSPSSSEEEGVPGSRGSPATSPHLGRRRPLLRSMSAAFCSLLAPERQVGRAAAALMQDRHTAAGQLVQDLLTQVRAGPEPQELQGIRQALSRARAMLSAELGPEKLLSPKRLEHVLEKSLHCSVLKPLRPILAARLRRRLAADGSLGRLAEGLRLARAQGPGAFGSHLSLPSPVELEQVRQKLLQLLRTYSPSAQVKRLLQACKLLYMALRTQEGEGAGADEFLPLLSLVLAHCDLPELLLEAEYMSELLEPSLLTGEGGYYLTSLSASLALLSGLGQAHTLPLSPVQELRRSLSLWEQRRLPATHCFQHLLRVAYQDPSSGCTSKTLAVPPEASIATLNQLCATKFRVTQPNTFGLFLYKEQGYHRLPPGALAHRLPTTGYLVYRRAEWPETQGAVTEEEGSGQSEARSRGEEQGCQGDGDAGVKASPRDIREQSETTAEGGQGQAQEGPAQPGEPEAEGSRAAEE

For orientation: IC50 means the concentration that gives 50% inhibition. For `N#Cc1ccccc1Sc1ccccc1C(=O)NCC(c1ccco1)N1CCCC1` (configuration not stated), the half-inhibitory concentration (IC50) in assay [1] was 2480 nM (active).
Take `CC(NC(=O)c1ccc(OC2CCN(Cc3ccccn3)CC2)cc1)c1ccccc1` (configuration not stated): the IC50 is 1600 nM (active) in assay [2], 1260 nM (active) in assay [3] and 1790 nM (active) in assay [4].
In general, Ki refers to the equilibrium dissociation constant of an inhibitor or competing ligand from its target. Consider `COc1cc(Nc2ncc(C(F)(F)F)c(OC)n2)cc(OC)c1OC`, for which the Ki on Aurora kinase A was 50.1 nM (active); in assay [5], 631 nM (active); at Aurora kinase B, 15.8 nM (active).

The record behind these values is ChEMBL document CHEMBL1201862, “PubChem BioAssay data set” (2004).
